In US12226385B2, “Synergistic composition for activating intracellular secondary messenger(cAMP) pathway” (CELAGENEX RESEARCH (INDIA) PRIVATE LTD., priority 2021, dated 2025):
Read-outs that look alike come from different tables or passages of the source.

Columns and labels:
[1] = test system: cAMP; test: Modulatory effect on cAMP levels in C6 cells (ELISA kit); type: cell-based; conditions: C6 (Rat Glioblastoma) cells, 28 hours of incubation, doses per Table 1
Procedure: To assess the effectiveness of test substance on modulation of cAMP and evaluation of BDNF in Rat Glioblastoma cells.
The cytotoxicity profiling of the test substance was carried out to find the safe dose on C6 cells. […] The levels of cAMP in the cell lysate were measured using a suitable ELISA kit to infer the modulatory effect.
10 mg of test substance was separately dissolved in 100 μL of DMSO and volume was made up with Ham's F-12 medium supplemented with 2% inactivated FBS to obtain a stock solution of 10 mg/mL concentration and sterilized by 0.22μ syringe filtration. Serial two-fold dilutions were prepared from this stock solution for further studies.
C6 (Rat Glioblastoma) cell line was procured from NCCS, India. Stock cells was cultured in Ham's F-12 medium supplemented with 10% inactivated Fetal Bovine Serum (FBS), penicillin (100 IU/ml), streptomycin (100 μg/ml) and amphotericin B (5 μg/ml) in a humidified atmosphere of 5% CO2 at 37° C. until confluent. Passaging was done by centrifuging the cells, followed by seeding the pellet into a tissue culture vessel. The stock cultures were grown in 25 cm2 culture flasks and all experiments will be carried out in 96 microtitre plates (Tarsons India Pvt. Ltd., Kolkata, India).
To perform the assay, cells were seeded in 24-well plates containing […] complete Ham's F-12 with 4.5 g/L glucose. […] Then, the selected dose of test substances and positive control (Clozapine) was added to the cells. After 28 hours of incubation, the cell supernatants from respective treatment wells were collected and assayed to estimate the levels of cyclic AMP using a commercially available kit.

[2] = test system: BDNF; test: Estimation of BDNF levels in C6 cells (Rat BDNF ELISA kit); type: cell-based; conditions: C6 (Rat Glioblastoma) cells, 28 hours of incubation, doses per Table 1
Procedure: To perform the assay, cells were seeded in 24-well plates containing 500 μL complete Ham's F-12 with 4.5 g/L glucose. After 24 h, the confluent monolayer of cells was firstly incubated with the corresponding inhibitor compound for 1-4 h (based on standardization) minutes in the incubator at 37° C. and 5% CO2. Then, the selected dose of test substances and positive control was added to the cells. After 28 hours of incubation, the cell supernatants from respective treatment wells were collected and assayed to estimate the levels of BDNF using a commercially available Rat BDNF ELISA kit.

[3] = test system: ALCAR; test: Estimation of ALCAR plasma level (ALCAR ELISA kit); type: cell-based, Rat; conditions: doses per Table 1
Procedure: f. Estimation of ALCAR Plasma Level (Nmol/Ml): Assay Performed by ALCAR ELISA Kit
(§1) The estimation of modulatory effect of test substance on biochemical parameters were analysed in C6 (Rat Glioblastoma) cell. […] This indicated the increase in synapse number and neuroplasticity.

[4] = test system: CREB (Cyclic AMP Response Element-Binding Protein); test: Estimation of CREB (Cyclic AMP Response Element-Binding Protein); type: cell-based, Rat; conditions: doses per Table 1
Procedure: g. Estimation of CREB (Cyclic AMP Response Element-Binding Protein) nM Results:
as §1

[5] = test system: experimental rat; test: Force Swim Test in rats; type: in vivo; conditions: male Wister rats, n=6, end of treatment, doses per Table 3
Procedure: (§2) Evaluation of physical parameters of the test substances in experimental rat.
(§3) • Species: Rat • Strain: Wister • Sex: Male • No. of animals: 48 Animals (n=6 per group) • Body weight: 180-200 gm Group, Designation and Dose Levels:
(§4) The tests were performed by the known technique.
(§5) The following behavioural test were conducted at the end of the treatment, • Force Swim Test • Open Field Test • Behavioural at Novel Object Test • Behaviour at Elevated Plus Maze (EPM) test

[6] = test system: experimental rat; test: Open Field Test in rats; type: in vivo
Procedure: as §2, §3, §4, §5

[7] = test system: experimental rat; test: Novel Object Test in rats; type: in vivo
Procedure: as §2, §3, §4, §5
Table 5 represent behavioural at novel object test where latency time spent towards the novel objects indicated better memory and learning ability. This test is based on the spontaneous tendency of rats to spend more time exploring a novel object than a familiar one.

[8] = test system: experimental rat; test: Elevated Plus Maze (EPM) test in rats; type: in vivo
Procedure: as §2, §3, §4, §5

[9] = test system: Adult Patients with Major Depressive Disorder; test: Double-blind, fixed-dose clinical study, Hamilton Rating Scale for Depression (HAM-D); type: in vivo, human
Procedure: Composition-1—(3R)-3-acetyloxy-4-(trimethylazaniumyl)butanoate+N-4-Aminobutylguanidine—500 mg+250 mg
(§6) A double-blind, Fixed-dose study, 80 participants (males and females) with major depression were randomly assigned to receive test samples. Age eligibility for study include 18 Years to 65 Years (Adult, Older Adult)
Participants were evaluated at visits at screening, baseline/randomization, and 4, 8, and 12 weeks after randomization. Masking—Triple (Participant, Investigator, Outcomes Assessor); Parallel Assignment
Pre-assignment Details: A one-week single-blind placebo period was completed prior to randomization.
Change From Baseline in Hamilton Rating Scale for Depression (HAM-D) at Week 4, 8 and 12 [Time Frame: Change from baseline in HAM-D at week 4, 8 and 12]
The HAMD is a clinician-rated 21-item scale was used to rate the patient's depressive state. It was also used to identify obsessive-compulsive, genital, and somatic symptoms, as well as diurnal variation in the presence of symptoms. Each item was scored on a 1, 2, 3, 4 or 5-point Likert scale. A score of 0 indicated the absence of symptoms, and a score of 2, 3 or 4 indicated symptoms of maximum severity. The total score range is 0 to 62 (higher score indicates a greater depressive state).

[10] = test system: Adult Patients with Major Depressive Disorder; test: Clinical study, serum Acetyl-L carnitine (ALCAR) levels; type: in vivo, human
Source text: as §6
To measure serum Acetyl-L carnitine levels pre-treatment and end of 12 weeks and correlate it with severity of depression and treatment outcomes.

[11] = male Wister rats, n=6, end of treatment, doses per Table 3
[12] = pretreatment, whole arm (Table 8)

CC(=O)O[C@H](CC(=O)[O-])C[N+](C)(C)C [Group 4, (3R)-3-acetyloxy-4-(trimethylazaniumyl)butanoate]
cAMP [1]: 4.8 pmol/µL | BDNF [2]: 88 ng/L | Plasma ALCAR [3]: 25 nmol/mL | CREB [4]: 1.0 nM | Force Swim Test Immobility [5]: 55 s | Open Field Test Distance walked in corners [6, 11]: 1860 cm | Open Field Test Latency to reach center [6, 11]: 27 s | Latency to reach Novel Object [7, 11]: 35 s | Number of times sniffing the object [7, 11]: 49 times | Time Spent sniffing the object [7, 11]: 08% | Number of entries in to open arm [8, 11]: 08 times | Number of times head dipping [8, 11]: 12 times | Number of times rearing [8, 11]: 18 times | Time Spent Rearing [8, 11]: 15% | Time in the open arms [8, 11]: 12% | time spent head dipping [8, 11]: 11%

CN(C)CCC[C@@]1(c2ccc(F)cc2)OCc2cc(C#N)ccc21 [Escitalopram]
cAMP [1]: 6.0 pmol/µL | Plasma ALCAR [3]: 23 nmol/mL | CREB [4]: 0.8 nM | Force Swim Test Immobility [5]: 68 s | Open Field Test Distance walked in corners [6, 11]: 1900 cm | Open Field Test Latency to reach center [6, 11]: 26 s | Latency to reach Novel Object [7, 11]: 32 s | Number of times sniffing the object [7, 11]: 48 times | Time Spent sniffing the object [7, 11]: 09% | Number of entries in to open arm [8, 11]: 07 times | Number of times head dipping [8, 11]: 12 times | Number of times rearing [8, 11]: 18 times | Time Spent Rearing [8, 11]: 16% | Time in the open arms [8, 11]: 11% | time spent head dipping [8, 11]: 12% | Mean HAM-D Score ([9]; Baseline): 26.2 | Mean HAM-D Score ([9]; Week-4): 25.72 | Non-Responder Rate ([9]; Week-4): (100%) | Non-Responder Rate, patients/total ([9]; Week-4): 40/40 | Remission Rate (HAM-D Score <7) ([9]; Week-4): (0%) | Remission Rate (HAM-D Score <7), patients/total ([9]; Week-4): 0/40 | Responder Rate (50% Reduction from baseline) ([9]; Week-4): (0%) | Responder Rate (50% Reduction from baseline), patients/total ([9]; Week-4): 0/40 | Mean HAM-D Score ([9]; Week-8): 21.45 | Non-Responder Rate ([9]; Week-8): (97.5%) | Non-Responder Rate, patients/total ([9]; Week-8): 39/40 | Remission Rate (HAM-D Score <7) ([9]; Week-8): (0%) | Remission Rate (HAM-D Score <7), patients/total ([9]; Week-8): 0/40 | Responder Rate (50% Reduction from baseline) ([9]; Week-8): (2.5%) | Responder Rate (50% Reduction from baseline), patients/total ([9]; Week-8): 1/40 | Mean HAM-D Score ([9]; Week-12): 13.75 | Non-Responder Rate ([9]; Week-12): (52.5%) | Non-Responder Rate, patients/total ([9]; Week-12): 21/40 | Remission Rate (HAM-D Score <7) ([9]; Week-12): (17.5%) | Remission Rate (HAM-D Score <7), patients/total ([9]; Week-12): 7/40 | Responder Rate (50% Reduction from baseline) ([9]; Week-12): (30%) | Responder Rate (50% Reduction from baseline), patients/total ([9]; Week-12): 12/40 | Non-Responder Remission Rate in Female Subgroup ([9]; Week-12, female subgroup): (75%) | Non-Responder Remission Rate in Female Subgroup, patients/total ([9]; Week-12, female subgroup): 21/28 | Responder Remission Rate in Female Subgroup ([9]; Week-12, female subgroup): (25%) | Responder Remission Rate in Female Subgroup, patients/total ([9]; Week-12, female subgroup): 7/28 | Mean HAM-D Score at pretreatment [9, 12]: 26.2 | Mean Serum ALCAR, Non-Responder group ([10]; Baseline): 0.94 µg/mL | Mean Serum ALCAR, Remission group ([10]; Baseline): 1.20 µg/mL | Mean Serum ALCAR, Responder group ([10]; Baseline): 0.91 µg/mL | Mean Serum ALCAR, Non-Responder group ([10]; Week-12): 0.99 µg/mL | Mean Serum ALCAR, Remission group ([10]; Week-12): 3.53 µg/mL | Mean Serum ALCAR, Responder group ([10]; Week-12): 2.19 µg/mL | Mean serum ALCAR at pretreatment [10, 12]: 1.01 microgram/ml

N=C(N)NCCCCN [Group 5, N-4-aminobutylguanidine]
cAMP [1]: 5.1 pmol/µL | BDNF [2]: 91 ng/L | Plasma ALCAR [3]: 22 nmol/mL | CREB [4]: 1.2 nM | Force Swim Test Immobility [5]: 59 s | Open Field Test Distance walked in corners [6]: 1820 cm | Open Field Test Latency to reach center [6]: 25 s | Time Spent sniffing the object [7]: 09% | Latency to reach Novel Object [7, 11]: 36 s | Number of times sniffing the object [7, 11]: 47 times | Time Spent Rearing [8]: 13% | time spent head dipping [8]: 10% | Number of entries in to open arm [8, 11]: 07 times | Number of times head dipping [8, 11]: 11 times | Number of times rearing [8, 11]: 16 times | Time in the open arms [8, 11]: 11%

CN1CCN(C2=Nc3cc(Cl)ccc3Nc3ccccc32)CC1 [Clozapine]
cAMP [1]: 4.1 pmol/µL | BDNF [2]: 77 ng/L | Plasma ALCAR [3]: 21 nmol/mL | CREB [4]: 0.5 nM | Force Swim Test Immobility [5]: 189 s | Open Field Test Distance walked in corners [6, 11]: 2200 cm | Open Field Test Latency to reach center [6, 11]: 38 s | Latency to reach Novel Object [7, 11]: 03 s | Number of times sniffing the object [7, 11]: 62 times | Time Spent sniffing the object [7, 11]: 13% | Number of entries in to open arm [8, 11]: 10 times | Number of times head dipping [8, 11]: 18 times | Number of times rearing [8, 11]: 25 times | Time Spent Rearing [8, 11]: 19% | Time in the open arms [8, 11]: 15% | time spent head dipping [8, 11]: 21%
